In US4612372A, “Tylosin derivatives” (Sanraku Incorporated, priority 1984, dated 1986):

Key:
[1] = Stability against liver homogenate of mice; assay type: in vitro ADME, mice (ICB strain); settings: for remaining at 1 h: pH 7.2, mouse liver homogenate supernatant, 37° C., contact 60 minutes, read-out: Residual Intact Compound Rate
Experimental: Liver from ICB strain mice was homogenated with a potter's homogenizer (3000 rpm, 10 minutes) together with a 5-fold amount of 0.1M phosphate buffer (pH 7.2). To the supernatant was added 1 ml of a 500 μg/ml (10% methanolic water) of a specimen. After the mixture was reacted at 37° C. for 1 hour, the reaction mixture was heated at 100° C. for 3 minutes. Then, 1 ml of 0.1M phosphate buffer (pH 9.0) was added thereto and extracted with 1 ml of ethyl acetate. The organic layer was subjected to silica gel thin layer chromatograph y (chloroform/methanol/ammonia=15/1.2/0.1). By a chromatographic scanner (283 nm), a formation ratio of the unchanged substance to the hydrolysate was determined and the formation of the hydrolysate was expressed by percentage.

resistant bacteria [2] = settings: drug-resistant bacteria
[3] = system: pathogenic microorganisms; test: Antibacterial activity in general (in words); assay type: cell-based
resistant bacteria [4] = settings: U.S. Pat. No. 4,205,163; cited from earlier work
[5] = system: infectious diseases of mice; test: Experiment of treatment for infectious diseases of mice; assay type: in vivo
esterase = test: Hydrolysis by esterase in vivo (particularly in liver)

| SMILES | remaining at 1 h [1] | other results |
| --- | --- | --- |
| CCC1OC(=O)CC(O)C(C)C(OC2OC(C)C(OC3CC(C)(O)C(OC(=O)Cc4ccc(S(C)(=O)=O)cc4)C(C)O3)C(N(C)C)C2O)C(CC=O)CC(C)C(=O)C=CC(C)=CC1COC1OC(C)C(O)C(OC)C1OC (stereo not shown) [Compound 1, 4"-O-(4-Methylsulfonylphenylacetyl)tylosin] | 89% | – |
| CCC1OC(=O)CC(O)C(C)C(OC2OC(C)C(OC3CC(C)(O)C(OC(=O)Cc4ccc(SC)cc4)C(C)O3)C(N(C)C)C2O)C(CC=O)CC(C)C(=O)C=CC(C)=CC1COC1OC(C)C(O)C(OC)C1OC (stereo not shown) [Compound 2, 4"-O-(4-Methylthiophenylacetyl)tylosin] | 84% | – |
| CCC1OC(=O)CC(O)C(C)C(OC2OC(C)C(OC3CC(C)(O)C(OC(=O)Cc4ccc(C(C)=O)cc4)C(C)O3)C(N(C)C)C2O)C(CC=O)CC(C)C(=O)C=CC(C)=CC1C (stereo not shown) [Compound 3] | 95% | – |
| CCC1OC(=O)CC(O)C(C)C(OC2OC(C)C(OC3CC(C)(O)C(OC(=O)Cc4ccc(C(=O)c5ccccc5)cc4)C(C)O3)C(N(C)C)C2O)C(CC=O)CC(C)C(=O)C=CC(C)=CC1COC1OC(C)C(O)C(OC)C1OC (stereo not shown) [Compound 4, 4"-O-(4-Benzoylphenylacetyl)tylosin] | 82% | – |
| CCC1OC(=O)CC(O)C(C)C(OC2OC(C)C(OC3CC(C)(O)C(OC(=O)Cc4ccc(OC)cc4)C(C)O3)C(N(C)C)C2O)C(CC=O)CC(C)C(=O)C=CC(C)=CC1COC1OC(C)C(O)C(OC)C1OC (stereo not shown) [Compound 5, 4"-O-(4-Methoxyphenylacetyl)tylosin] | 94% | – |
| CCC1OC(=O)CC(O)C(C)C(OC2OC(C)C(OC3CC(C)(O)C(OC(=O)Cc4ccc(F)cc4)C(C)O3)C(N(C)C)C2O)C(CC=O)CC(C)C(=O)C=CC(C)=CC1COC1OC(C)C(O)C(OC)C1OC (stereo not shown) [Compound 6, 4"-O-(4-Fluorophenylacetyl)tylosin] | 95% | – |
| CCC1OC(=O)CC(O)C(C)C(OC2OC(C)C(OC3CC(C)(O)C(OS(=O)(=O)Cc4ccc(F)cc4)C(C)O3)C(N(C)C)C2O)C(CC=O)CC(C)C(=O)C=CC(C)=CC1COC1OC(C)C(O)C(OC)C1OC (stereo not shown) [Compound 7, 4"-O-(4-Fluorobenzylsulfonyl)tylosin] | < 95% | – |
| CCC1OC(=O)CC(O)C(C)C(OC2OC(C)C(OC3CC(C)(O)C(OC(=O)Cc4ccc(C(C)=O)cc4)C(C)O3)C(N(C)C)C2O)C(CC=O)CC(C)C(=O)C=CC(C)=CC1COC1OC(C)C(O)C(OC)C1OC (stereo not shown) [Compound 8, 4"-O-(4-Acetylphenylacetyl)tylosin] | < 95% | – |
| CCC1OC(=O)CC(O)C(C)C(OC2OC(C)C(OC3CC(C)(O)C(OC(=O)Cc4ccccc4F)C(C)O3)C(N(C)C)C2O)C(CC=O)CC(C)C(=O)C=CC(C)=CC1COC1OC(C)C(O)C(OC)C1OC (stereo not shown) [Compound 9, 4"-O-(2-Fluorophenylacetyl)tylosin] | 95% | – |
| CCC1OC(=O)CC(OC(C)=O)C(C)C(OC2OC(C)C(OC3CC(C)(O)C(OC(=O)Cc4ccc(C(C)=O)cc4)C(C)O3)C(N(C)C)C2O)C(CC=O)CC(C)C(=O)C=CC(C)=CC1COC1OC(C)C(O)C(OC)C1OC (stereo not shown) [Compound 10, 3-O-acetyl-4"-O-(4-acetylphenylacetyl)tylosin] | < 95% | – |
| CCC1OC(=O)CC(O)C(C)C(OC2OC(C)C(OC3CC(C)(O)C(OC(=O)Cc4ccccc4)C(C)O3)C(N(C)C)C2O)C(CC=O)CC(C)C(=O)C=CC(C)=CC1COC1OC(C)C(O)C(OC)C1OC (stereo not shown) [Control 1, reference compound] | – | stability against liver homogenate (in words) ([1]; liver homogenate of mice): good result; antibacterial activity against resistant bacteria (in words) (resistant bacteria [2]): poor in antibacterial activity against resistant bacteria |
| CCC1OC(=O)CC(O)C(C)C(OC2OC(C)C(OC3CC(C)(O)C(OC(=O)CSc4ccccc4)C(C)O3)C(N(C)C)C2O)C(CC=O)CC(C)C(=O)C=CC(C)=CC1COC1OC(C)C(O)C(OC)C1OC (stereo not shown) [Control 2, 4"-O-phenylthioacetyltylosin] | 0% | antibacterial activity (in words) [3]: high antibacterial activity in vitro; effectiveness against macrolide-resistant bacteria (in words) (resistant bacteria [4]): most effective tylosin derivative against macrolide-resistant bacteria; result in experiment of treatment for infectious diseases of mice (in words) [5]: merely unsatisfactory results; hydrolysis by esterase (in words) (esterase): completely hydrolyzed by esterase |
| CCC1OC(=O)CC(O)C(C)C(OC2OC(C)C(OC3CC(C)(O)C(OC(=O)Cc4ccccc4)C(C)O3)C(N(C)C)C2O)C(CC=O)CC(C)C(=O)C=CC(C)=CC1COC1OC(C)C(O)C(OC)C1OC (stereo not shown) [Control 3, reference compound] | < 95% | – |
| CCC1OC(=O)CC(O)C(C)C(OC2OC(C)C(OC3CC(C)(O)C(OS(=O)(=O)Cc4ccccc4)C(C)O3)C(N(C)C)C2O)C(CC=O)CC(C)C(=O)C=CC(C)=CC1COC1OC(C)C(O)C(OC)C1OC (stereo not shown) [Control 4, reference compound] | 0% | – |
